Experimental data published in PMC11173508, “Pharmacokinetics and Tissue Distribution of Itampolin A following Intragastric and Intravenous Administration in Rats Using Ultra-High-Performance Liquid Chromatography–Tandem Mass Spectrometry” (Molecules, 2024).
Read-outs that look alike come from different tables or passages of the source.

How the values were obtained:
[1] = Pharmacokinetic study in rats after intragastric and intravenous administration (UHPLC-MS/MS of plasma); format: in vivo, Sprague–Dawley rats; details: for MRT inf: n = 6, read-out: MRT0–∞; for k el: n = 6, read-out: ke (converted); for bioavailability: F = Doseiv × AUCig/(Doseig × AUCiv) × 100%, read-out: absolute bioavailability (F)
Protocol: Sprague–Dawley rats (250 ± 20 g) were supplied from the Experimental Animal Centre of China Medical University (Shenyang, China) and housed under unified conditions. All of the animal experiments were conducted in compliance with the Guidelines for Care and Use of Laboratory Animals of China Medical University and the protocols were approved by the Animal Ethics Committee of the institution (code number: CMU2023205). The rats were raised in a standard environment with a temperature of 24 ± 2 °C, relative humidity of 55 ± 10%, and 12 h light/12 h dark cycles. These rats were acclimatized to the environment for at least one week before the experiment, provided free access to drinking water, and fed during this period. Twenty-four SD rats, which were divided into four groups (six rats per group), received 5 mg/kg itampolin A by intravenous administration or 10, 25, and 50 mg/kg itampolin A by intragastric administration for the pharmacokinetics experiments. Twenty SD rats (five rats for each time point) received 25 mg/kg itampolin A by intragastric administration for the tissue distribution study.
The simple protein precipitation extraction technique using methanol as the precipitating solvent was applied to extract itampolin A and IS from biological samples [23, 24]. The 100 µL of plasma sample, 50 µL of IS working solution, and 200 µL of methanol were added in 500 µL microcentrifuge tubes to precipitate proteins. After vortexing for 1 min, the samples were centrifuged at 12,000 rpm for 10 min to remove the denatured protein. Subsequently, the supernatant was transferred into another tube and evaporated to dryness with a stream of nitrogen at 35 °C. The remains were reconstituted in 100 µL of initial mobile phase, briefly vortexed, and centrifuged at 12,000 rpm for 10 min. Then, 10 µL of the supernatant was transferred to sampling vials for the UHPLC-MS/MS system.
For both intragastric and intravenous administration, itampolin A was dissolved in polyethylene glycol (PEG)-saline (1:3, PEG: 380–420) for the preparation of dosing solutions. Eighteen Sprague–Dawley rats were divided into three groups randomly (six rats each). The rats of each group were weighed, and then given a single dose of 10 mg/kg, 25 mg/kg, and 50 mg/kg itampolin A via intragastric administration, respectively. Blood samples (200 µL) were obtained from orbital vein into heparinized centrifuge tubes at 0.083, 0.25, 0.5, 0.75, 1, 1.5, 2, 3, 4, 6, 8, 12, and 24 h after drug administration.
Six Sprague–Dawley rats were weighed, and then given a single dose of 5 mg/kg of itampolin A via intravenous administration. Blood samples (200 µL) were obtained from orbital vein into heparinized centrifuge tubes at 0.033, 0.083, 0.167, 0.25, 0.5, 0.75, 1, 1.5, 2, 3, 4, 8, and 12 h after drug administration. The blood samples obtained from both intragastric and intravenous administration were immediately separated by centrifugation at 12,000 rpm for 10 min, and then the supernatant plasma was gathered and stored at −20 °C prior to analysis.
The pharmacokinetic parameters were calculated by non-compartmental model using the DAS 3.2.8 software. All data were presented as mean ± SD.

[2] = Solubility in normal saline; format: physicochemical
[3] = Sprague-Dawley, rat, iv, i.v. 5 mg/kg, plasma, mean ± SD, n = 6
[4] = Sprague-Dawley, rat, iv, i.v. 5 mg/kg, plasma, mean ± SD
[5] = Sprague-Dawley, rat, plasma, iv, 5 mg/kg, i.v. 5 mg/kg, mean ± SD, n = 6
[6] = Sprague-Dawley, rat, plasma, po, 10 mg/kg, i.g. low dose 10 mg/kg, mean ± SD, n = 6
[7] = Sprague-Dawley, rat, plasma, po, 25 mg/kg, i.g. mid dose 25 mg/kg, mean ± SD, n = 6
[8] = Sprague-Dawley, rat, plasma, po, 50 mg/kg, i.g. high dose 50 mg/kg, mean ± SD, n = 6
[9] = Sprague-Dawley, rat, po, i.g. high dose 50 mg/kg, plasma, mean ± SD, n = 6
[10] = Sprague-Dawley, rat, po, i.g. high dose 50 mg/kg, plasma, mean ± SD
[11] = Sprague-Dawley, rat, po, i.g. low dose 10 mg/kg, plasma, mean ± SD, n = 6
[12] = Sprague-Dawley, rat, po, i.g. low dose 10 mg/kg, plasma, mean ± SD
[13] = Sprague-Dawley, rat, po, i.g. mid dose 25 mg/kg, plasma, mean ± SD, n = 6
[14] = Sprague-Dawley, rat, po, i.g. mid dose 25 mg/kg, plasma, mean ± SD
[15] = i.g. high dose 50 mg/kg, plasma, mean ± SD, n = 6
[16] = i.g. low dose 10 mg/kg, plasma, mean ± SD, n = 6
[17] = i.g. mid dose 25 mg/kg, plasma, mean ± SD, n = 6
[18] = intragastric 10, 25 and 50 mg/kg

Work on COc1c(Br)cc(C[C@H](NC(=O)Cc2ccc(OCCCNC(C)=O)cc2)C(=O)NCCc2cc(Br)c(O)c(Br)c2)cc1Br [itampolin A, Itampolin A] yielded an AUC(0-inf) [1, 3] of 2830 ± 110 ng·h/mL, an AUC(0-t) [1, 3] of 978 ± 26.2 ng·h/mL and a Cmax [1, 3] of 1340 ± 52.2 ng/mL. For the same compound, the clearance [1, 3] was 30 mL/min/kg, the MRT inf [1, 4] was 4.8 ± 0.3 h and the Vd ([1]; Sprague-Dawley, rat, iv, i.v. 5 mg/kg, plasma, mean ± SD, n = 6, read-out: Vd) was 6.6 ± 0.4 L/kg. For the same compound, the k el [1, 4] was 7.5e-05 s⁻¹, the Tmax [1, 5] was 0.03 h and the half-life [1, 5] was 2.6 ± 0.2 h. The bioavailability ([1]; Sprague-Dawley, rat, plasma, oral dose 10 mg/kg vs i.v. 5 mg/kg) was 18.8%, the bioavailability ([1]; Sprague-Dawley, rat, plasma, oral dose 25 mg/kg vs i.v. 5 mg/kg) was 13.7% and the bioavailability ([1]; Sprague-Dawley, rat, plasma, oral dose 50 mg/kg vs i.v. 5 mg/kg) was 11.2%. It also gave a Tmax [1, 6] of 1.7 ± 0.2 h, a half-life [1, 6] of 2.6 ± 0.3 h and a Tmax [1, 7] of 1.7 ± 0.2 h. It also gave a half-life [1, 7] of 2.3 ± 0.2 h, a Tmax [1, 8] of 0.9 ± 0.1 h and a half-life [1, 8] of 2.1 ± 0.2 h. It also gave a half-life ([1]; Sprague-Dawley, rat, plasma, po, 50 mg/kg, intragastric 10, 25 and 50 mg/kg, range over the three doses) of 2.1 to 2.6 h, a Tmax ([1]; Sprague-Dawley, rat, plasma, po, 50 mg/kg, intragastric 10, 25 and 50 mg/kg, summary over the three doses) of under 1.7 h and an AUC(0-inf) [1, 9] of 3190 ± 94.7 ng·h/mL. It also gave an AUC(0-t) [1, 9] of 2640 ± 44.6 ng·h/mL, a Cmax [1, 9] of 807 ± 36.9 ng/mL and an MRT inf [1, 10] of 3.7 ± 0.2 h. The k el [1, 10] was 9.17e-05 s⁻¹, the AUC(0-inf) [1, 11] was 1080 ± 55.8 ng·h/mL and the AUC(0-t) [1, 11] was 939 ± 34.9 ng·h/mL. The Cmax [1, 11] was 283 ± 20 ng/mL, the MRT inf [1, 12] was 4.6 ± 0.5 h and the k el [1, 12] was 7.5e-05 s⁻¹. It also gave an AUC(0-inf) [1, 13] of 1940 ± 116 ng·h/mL, an AUC(0-t) [1, 13] of 1540 ± 44.9 ng·h/mL and a Cmax [1, 13] of 412 ± 13.7 ng/mL. It also gave an MRT inf [1, 14] of 4.2 ± 0.3 h, a k el [1, 14] of 8.33e-05 s⁻¹ and a CL [1, 15] of 207 ± 6.7 mL/min/kg. The Vd [1, 15] was 44.6 ± 2.8 L/kg, the CL [1, 16] was 185 ± 8.3 mL/min/kg and the Vd [1, 16] was 42.2 ± 2.9 L/kg. For the same compound, the CL [1, 17] was 215 ± 13 mL/min/kg, the Vd [1, 17] was 43.9 ± 1.7 L/kg and the “correlation coefficient of AUC0–t versus dose (dose linearity)” value [1, 18] was 0.999. The “correlation coefficient of AUC0–∞ versus dose (dose linearity)” value [1, 18] was 0.998, the “correlation coefficient of Cmax versus dose (dose linearity)” value [1, 18] was 0.981 and the “solubility in normal saline” value [2] was “small”.
